From patent US4882313A, “Carboxamide derivatives of glycopeptides” (SmithKline Beckman Corporation, priority 1987, dated 1989)

Assays:
[1] = pI (analytical data, Table 2); assay type: physicochemical
Source text: Using substantially the procedures of both Examples 1 and 2, the compounds of Examples 3-15 were obtained by using the appropriate glycopeptide and amine starting materials.

[2] = system: Staphylococcus saprophyticus; assay: standard microtiter assay, minimum inhibitory concentration; assay type: cell-based; conditions: Test Organism 12, Staphylococcus saprophyticus
Source text: (§1) Representative results of standard microtiter assays are reported in Table 1 which follows, as the minimum inhibitory concentration of antibiotic (mg/ml). In Table 1, test organisms 1-5 were different strains of Staphylococcus aureus; 6, 8, 11, 13 and 14 were different strains of Staphylococcus epidermidis; 7 was a Staphylococcus haemolyticus; 9 and 10 were different strains of Streptococcus faecalis; and 12 was a Staphylococcus saprophyticus.

[3] = system: Staphylococcus haemolyticus; assay: as above; assay type: cell-based; conditions: Test Organism 7, Staphylococcus haemolyticus
Source text: as §1

[4] = system: Staphylococcus aureus; assay: as above; assay type: cell-based; conditions: for minimum inhibitory concentration of antibiotic, Test Organism 1: Test Organism 1, strain of Staphylococcus aureus; for minimum inhibitory concentration of antibiotic, Test Organism 2: Test Organism 2, strain of Staphylococcus aureus; for minimum inhibitory concentration of antibiotic, Test Organism 3: Test Organism 3, strain of Staphylococcus aureus; for minimum inhibitory concentration of antibiotic, Test Organism 4: Test Organism 4, strain of Staphylococcus aureus; for minimum inhibitory concentration of antibiotic, Test Organism 5: Test Organism 5, strain of Staphylococcus aureus
Source text: as §1

[5] = system: Streptococcus faecalis; assay: as above; assay type: cell-based; conditions: for minimum inhibitory concentration of antibiotic, Test Organism 9: Test Organism 9, strain of Streptococcus faecalis; for minimum inhibitory concentration of antibiotic, Test Organism 10: Test Organism 10, strain of Streptococcus faecalis
Source text: as §1

[6] = system: Staphylococcus epidermidis; assay: as above; assay type: cell-based; set-up: minimum inhibitory concentration of antibiotic, Test Organism 8: unit not given here; conditions: for minimum inhibitory concentration of antibiotic, Test Organism 6: Test Organism 6, strain of Staphylococcus epidermidis; for minimum inhibitory concentration of antibiotic, Test Organism 11: Test Organism 11, strain of Staphylococcus epidermidis; for minimum inhibitory concentration of antibiotic, Test Organism 13: Test Organism 13, strain of Staphylococcus epidermidis; for minimum inhibitory concentration of antibiotic, Test Organism 14: Test Organism 14, strain of Staphylococcus epidermidis; for minimum inhibitory concentration of antibiotic, Test Organism 8: Test Organism 8, strain of Staphylococcus epidermidis
Source text: as §1

SMILES	pI [1]	minimum inhibitory concentration of antibiotic, Test Organism 12 [2]	minimum inhibitory concentration of antibiotic, Test Organism 7 [3]	minimum inhibitory concentration of antibiotic, Test Organism 1 [4]	minimum inhibitory concentration of antibiotic, Test Organism 2 [4]	minimum inhibitory concentration of antibiotic, Test Organism 3 [4]	minimum inhibitory concentration of antibiotic, Test Organism 4 [4]	minimum inhibitory concentration of antibiotic, Test Organism 5 [4]	minimum inhibitory concentration of antibiotic, Test Organism 9 [5]	minimum inhibitory concentration of antibiotic, Test Organism 6 [6]	minimum inhibitory concentration of antibiotic, Test Organism 11 [6]	minimum inhibitory concentration of antibiotic, Test Organism 13 [6]	minimum inhibitory concentration of antibiotic, Test Organism 14 [6]	minimum inhibitory concentration of antibiotic, Test Organism 10 [5]	minimum inhibitory concentration of antibiotic, Test Organism 8 [6]
CNC1C(=O)NC2C(=O)NC(C(=O)NC3C(=O)NC4C(=O)NC(C(=O)NC(C(N)=O)c5cc(O)cc(OC6OC(CO)C(O)C(O)C6O)c5-c5cc4ccc5O)C(O)c4cc(Cl)c(c(Cl)c4)Oc4cc3cc(c4O)Oc3ccc(cc3Cl)C2O)c2cc(cc(O)c2Cl)Oc2cc1ccc2O (stereo not drawn) [Compound 2n, Ardacin mannosylaglycone amide]	7.1	1600 µg/mL	1600 µg/mL	200 µg/mL	800 µg/mL	100 µg/mL	3100 µg/mL	400 µg/mL	200 µg/mL	1600 µg/mL	6300 µg/mL	1600 µg/mL	1600 µg/mL		
CNC1C(=O)NC2C(=O)NC(C(=O)NC3C(=O)NC4C(=O)NC(C(=O)NC(C(=O)NCCN)c5cc(O)cc(OC6OC(CO)C(O)C(O)C6O)c5-c5cc4ccc5O)C(O)c4cc(Cl)c(c(Cl)c4)Oc4cc3cc(c4O)Oc3ccc(cc3Cl)C2O)c2cc(cc(O)c2Cl)Oc2cc1ccc2O (stereo not drawn) [Compound 2o, Ardacin mannosylaglycone-(2-aminoethyl amide)]	7.8	400 µg/mL	1600 µg/mL	400 µg/mL	400 µg/mL	400 µg/mL	400 µg/mL	400 µg/mL	200 µg/mL	400 µg/mL	800 µg/mL	100 µg/mL		200 µg/mL	0.8
CNC1C(=O)NC2C(=O)NC(C(=O)NC3C(=O)NC4C(=O)NC(C(=O)NC(C(N)=O)c5cc(O)cc(OC6OC(CO)C(O)C(O)C6O)c5-c5cc4ccc5O)C(O)c4ccc(c(Cl)c4)Oc4cc3cc(c4OC3OC(C(N)=O)C(O)C(O)C3NC(=O)CCCCCCCCC(C)C)Oc3ccc(cc3)C2O)c2cc(cc(O)c2Cl)Oc2cc1ccc2O (stereo not drawn) [Compound 2q, AAJ-271 C1 diamide]	7.3	12500 µg/mL	3100 µg/mL	800 µg/mL	1600 µg/mL	800 µg/mL	> 1600 µg/mL	1600 µg/mL	200 µg/mL	12500 µg/mL	12500 µg/mL	3100 µg/mL	3100 µg/mL	200 µg/mL	6.3
